Reference: paper PMC4749168, “Potentiation of ΔF508- and G551D-CFTR-Mediated Cl^- Current by Novel Hydroxypyrazolines” (PLoS ONE, 2016)
Values joined by “and” are separate entries in the source; they are usually repeats but may differ in a detail not shown here. Identical values can stand only once.

Key:
[1] = biological target: T1, WT-CFTR (Homo sapiens, UniProt P13569); experiment: Apical membrane current (Ussing chamber) in FRT cells expressing WT-CFTR; format: cell-based
T1 construct: expressed in transfected cells; host or cells: Fisher rat thyroid (FRT) cells, co-expressing halide sensor YFP-H148Q/I152L; provided by Dr. Alan Verkman
Experimental: Snapwell inserts containing CFTR-expressing FRT and primary culture of human nasal epithelial cells were mounted in Ussing chambers (Physiologic Instruments, San Diego, CA). Forskolin, genistein, CP7q and CFTRinh-172 were added to the apical and basolateral bath solution. For FRT cells, the apical bath was filled with a half-Cl^- solution and the basolateral bath was filled with HCO3^—buffered solution, and the basolateral membrane was permeabilized with 250 μg/mL amphotericin B. For primary cultures of human nasal epithelial cells, symmetrical HCO3^—buffered solutions were used and ENaC was inhibited by pre-treatment with amiloride (100 μM). All cells were bathed for a 20 min stabilization period and aerated with 95% O2 / 5% CO2 at 37°C. Apical membrane current and short-circuit current were measured with an EVC4000 Multi-Channel V/I Clamp (World Precision Instruments, Sarasota, FL) and recorded using PowerLab 4/35 (AD Instruments, Castle Hill, Australia). Data were collected and analyzed with ADInstruments acquisition software Labchart Pro 7 software. The sampling rate was 4 Hz.

[2] = tested on: HT-29 cells; experiment: MTS cell viability assay; format: cell-based, human; conditions: 24 h, up to 10 μM
Experimental: HT-29 human colon adenocarcinoma cells were plated at a density of 1 x10^4 per cm^2on 96-well microplates. After 24 h incubation, cells were treated with hydroxypyrazolines and then incubated for 1 day. An equal amount of DMSO was added to the all control. The culture medium and the compounds were changed every 12 h. For MTS assay, the cells were reincubated with MTS for 1 hour. The soluble formazan produced by cellular reduction of MTS was quantified by measuring the absorbance at 490 nm with Infinite M200 (Tecan, Grödig, Austria) microplate reader. MTS assay was done using CellTiter 96® AQueous One Solution Cell Proliferation Assay kit (Promega, Madison, WI, USA).

[3] = biological target: T1, WT-CFTR; experiment: Whole-cell patch-clamp in FRT cells expressing WT-CFTR; format: cell-based
Experimental: Whole-cell patch-clamp recordings were performed on WT- or ΔF508-CFTR-expressing FRT cells. The bath solution contained (in mM): 140 NMDG-Cl, 1 CaCl2, 1 MgCl2, 10 glucose and 10 HEPES (pH 7.4). The pipette solution contained (in mM): 130 CsCl, 0.5 EGTA, 1 MgCl2, 1 Tris-ATP, and 10 HEPES (pH 7.2). Pipettes were pulled from borosilicate glass and had resistances of 3–5 MΩ after fire polishing. Seal resistances were between 3 and 10 GΩ. After establishing the whole-cell configuration, CFTR was activated by forskolin and/or CP7q. Whole-cell currents were elicited by applying hyperpolarizing and depolarizing voltage pulses from a holding potential of 0 mV to potentials between -80 mV and +80 mV in steps of 20 mV. Recordings were made at room temperature using an Axopatch-200B (Axon Instruments). Currents were digitized and analyzed using a Digidata 1440A converter (Axon Instruments), and pCLAMP 10.2 software (Molecular Devices, Sunnyvale, CA). Currents were low-pass filtered at 1 kHz and sampled at 5 kHz

## COc1ccc(C2CC(c3ccc(O)cc3O)=NN2c2ccc(S(N)(=O)=O)cc2)c(OC)c1 (centres unmarked) [Compound 7q, 4-[3-(2,4-dihydroxyphenyl)-5-(2,4-dimethoxyphenyl)-4,5-dihydro-1H-pyrazol-1-yl] benzenesulfonamide]
[1]; FRT-WT-CFTR cells, 0.1 μM forskolin
  EC50: 880 nM and ~880 nM
[1]; WT-CFTR stimulated by 0.1 μM forskolin
  Maximum efficacy of CFTR potentiation compared with genistein: significantly higher than that of genistein
[2]
  Cytotoxicity (cell viability, MTS): no cytotoxicity
[3]; 0.1 μM forskolin, 10 μM CP7q
  Potentiation of whole-cell WT-CFTR Cl- current: strongly potentiated
[3]; whole cell patch-clamp, no forskolin
  Activation of WT-CFTR without forskolin stimulation: did not activate
